According to patent publication US9133241B2, “Peptide compositions” (TARIX PHARMACEUTICALS LTD., priority 2013, dated 2015):

Columns and labels:
[1] = test system: transient middle cerebral artery occlusion (tMCAO) rat model of stroke; test: Cerebral blood flow and vessel diameter (laser Doppler), tMCAO rat model of stroke; type: in vivo; conditions: day 50; 50 μg/kg SC
Experimental: (§1) For the purposes of this Example, Transient middle cerebral artery occlusion (tMCAO) procedure Day is defined as “Day 1” in this study. On the day of surgery anesthesia were induced with 4% isoflurane in a mixture of 70% N2O and 30% O2 and maintained with 1.5-2% isoflurane.
(§2) The tMCAO procedures were performed according to the method described R. Schmid-Elsaesser et al., A critical reevaluation of the intraluminal thread model of focal cerebral ischemia: evidence of inadvertent premature reperfusion and subarachnoid hemorrhage in rats by laser-doppler flowmetry, Stroke, 1998, 29(10): 2162-2170. Briefly, the right CCA (Common Carotid Artery) was exposed through a midline neck incision and carefully dissected free from surrounding nerves and fascia—from its bifurcation to the base of the skull. The occipital artery branches of the ECA (External Carotid Artery) were then isolated, and these branches were dissected and coagulated. The ECA was dissected further distally and coagulated along with the terminal lingual and maxillary artery branches, which was then divided. The ICA (Internal Carotid Artery) was isolated and carefully separated from the adjacent vagus nerve, and the pterygopalatine artery was ligated close to its origin with a 5-0 nylon suture (SMI, Belgium). Next, a 4-0 silk suture was tied loosely around the mobilized ECA stump, and a 4 cm length of 4-0 monofilament nylon suture (the tip of the suture was blunted by using a flame, and the suture was coated with polylysine, prior to insertion) was inserted through the proximal ECA into the ICA and thence into the circle of Willis, effectively occluding the MCA. The surgical wound was closed and the animals were returned to their cages to recover from anesthesia. One hour and a half after occlusion rats were re-anesthetized, the monofilament was withdrawn to allow reperfusion, the surgical wound was closed and rats were returned to their cages.
(§3) Animals were subjected to a modified Modified Neurological Rating Scale (mNRS) at 24 hours post reperfusion. Only animals with an overall score of ≧10 were included in this study. Animals were allocated into the test groups, according to the mNRS results on day 2, in order to have similar distribution of rats performance between groups. Starting on day 2, 24 hours post-surgery, each animal was administered one of 50 μg/kg of either TXA301 (SEQ ID NO: 20) or TXA302 (SEQ ID NO: 18) or […]; via subcutaneous (SC) administration.
Evaluation of blood flow in the cerebral cortex and vessel constriction was carried out using a Flow-R Laser Doppler system, in which intracranial blood flow and vessels diameter (constriction/dilation) was monitored. The Doppler procedure was carried out on Day 50 after the stroke and was performed while the animals were under isoflurane anesthesia.

[2] = test system: human umbilical vein endothelial cells (HUVEC); test: BDNF production in HUVEC (BDNF Emax immunoassay of cell medium); type: cell-based; conditions: for lowest dose stimulating significant BDNF expression: serum-free medium, 24 hours stimulation
Experimental: (§4) Prior to stimulation, cells were washed twice with sterile PBS and then provided with the respective serum free cell medium. Cells were incubated in the serum-free medium for one hour and afterwards stimulated for 24 hours. For the dose response measurement the peptides were used in a range from 10^−14M to 10^−6M. For all other experiments, a 10^−7M concentration of the peptides was used, whereas isoproterenol and forskolin were used in a 10^−6M concentration. To maintain the concentration of the substances over a period of 24 hours they were added again into the medium after 12 hours. After stimulation, the concentration of BDNF was determined in the cell medium. The samples were either used directly or stored at −80° C.
(§5) For the determination of the concentration of BDNF the BDNF Emax® immunoassay system from Promega was used. At first, 96-well plates were coated with anti-BDNF overnight at 4° C. The next day, the plates were washed with TBST and incubated with blocking buffer for one hour at room temperature. Afterwards, the plate was washed again with TBST, and 100 μl of sample were applied per well. The plate was incubated on a shaker (˜400 rpm) for two hours at room temperature and later on washed five times with TBST. To each well 100 μl pAb anti-human BDNF were added, and the plate again incubated under continuous shaking for two hours at room temperature. Thereafter, the plate was washed five times with TBST, each well applied with 100 μl anti-IgY-HRP conjugate, and incubated at room temperature with shaking for one hour. Then, the plate was washed five times with TBST and incubated for 10 min at room temperature on a shaker with TMB One Solution. The reaction was stopped with 1 M hydrochloric acid and the absorbance was measured immediately at 450 nm. The BDNF concentration was determined from a standard curve.

[3] = test system: transient middle cerebral artery occlusion (tMCAO) rat model of stroke; test: Modified Neurological Rating Scale (mNRS), tMCAO rat model of stroke; type: in vivo; conditions: 50 μg/kg SC once per day, tMCAO rats
Experimental: as §1
(§6) The tMCAO procedures were performed according to the method described R. Schmid-Elsaesser et al., A critical reevaluation of the intraluminal thread model of focal cerebral ischemia: evidence of inadvertent premature reperfusion and subarachnoid hemorrhage in rats by laser-doppler flowmetry, Stroke, 1998, 29(10): 2162-2170. Briefly, the right CCA (Common Carotid Artery) was exposed through a midline neck incision and carefully dissected free from surrounding nerves and fascia—from its bifurcation to the base of the skull. The occipital artery branches of the ECA (External Carotid Artery) were then isolated, and these branches were dissected and coagulated. The ECA was dissected further distally and coagulated along with the terminal lingual and maxillary artery branches, which was then divided. The ICA (Internal Carotid Artery) was isolated and carefully separated from the adjacent vagus nerve, and the pterygopalatine artery was ligated close to its origin with a 5-0 nylon suture (SMI, Belgium). […]

[4] = test system: transient middle cerebral artery occlusion (tMCAO) rat model of stroke; test: Forelimb placement test, tMCAO rat model of stroke; type: in vivo; conditions: 50 μg/kg SC once per day; for forelimb placement: first day of statistically significant improvement vs vehicle: tMCAO rats; for forelimb placement score improvement vs vehicle control / forelimb placement score improvement vs vehicle control, percent: by day 50
Experimental: as §1, §2, §3
The limb placing tests were divided into both forelimb and hindlimb tests. For the forelimb-placing test, the examiner held the rat close to a tabletop and scored the rat's ability to place the forelimb on the tabletop in response to whisker, visual, tactile, or proprioceptive stimulation. Similarly, for the hindlimb placing test, the examiner assessed the rat's ability to place the hindlimb on the tabletop in response to tactile and proprioceptive stimulation. Separate sub-scores were obtained for each mode of sensory input and added to give total scores (for the forelimb placing test: 0=normal, 12=maximally impaired; for the hindlimb placing test: 0=normal; 6=maximally impaired). Scores were given in half-point increments as follows: whisker placing (0-2), visual placing-forward (0-2), -sideways (0-2); tactile placing-dorsal (0-2), -lateral (0-2); proprioceptive placing (0-2); for a total of 0-12.

[5] = test system: transient middle cerebral artery occlusion (tMCAO) rat model of stroke; test: Body swing test, tMCAO rat model of stroke; type: in vivo; conditions: 50 μg/kg SC once per day, tMCAO rats
Experimental: as §1
as §6, with “coagulated.” for “coagulated. The ECA was dissected further distally and coagulated along with the terminal lingual and maxillary artery branches, which was then divided. The ICA (Internal Carotid Artery) was isolated and carefully separated from the adjacent vagus nerve, and the pterygopalatine artery was ligated close to its origin with a 5-0 nylon suture (SMI, Belgium).”
The rat was held approximately one inch from the base of its tail. […] A swing was recorded whenever the rat moved its head out of the vertical axis to either side. Before attempting another swing, the rat had to return to the vertical position for the next swing to be counted. Twenty (20) total swings were counted. […] Body swing scores are expressed as a percentage of […] over total swings.

[6] = test system: transient middle cerebral artery occlusion (tMCAO) rat model of stroke; test: Stepping test, tMCAO rat model of stroke; type: in vivo; conditions: 50 μg/kg SC once per day, tMCAO rats
Experimental: as §1
as §6, with “coagulated.” for “coagulated. The ECA was dissected further distally and coagulated along with the terminal lingual and maxillary artery branches, which was then divided. The ICA (Internal Carotid Artery) was isolated and carefully separated from the adjacent vagus nerve, and the pterygopalatine artery was ligated close to its origin with a 5-0 nylon suture (SMI, Belgium).”
Animals were tested for forelimb akinesia in a stepping test. The animal was held with its hind limbs fixed with one hand and the forelimb not monitored with the other, while the unrestrained fore-paw touches a table. The number of adjusting steps were counted while the animal was moved sideways along the table surface (85 cm in approximately five seconds), in the forehand & backhand direction for both forelimbs.

[7] = test system: human dermal microvascual endothelial cells (HDMEC); test: BDNF production in HDMEC (BDNF Emax immunoassay of cell medium); type: cell-based; conditions: for lowest dose stimulating BDNF expression: serum-free medium, 24 hours stimulation
Experimental: as §4, §5

HUVEC cells = test: cAMP production in HUVEC (cAMP enzyme immunoassay of cell lysate); type: cell-based, human; conditions: 15 minutes stimulation
Experimental: Prior to stimulation with Ala^1-Arg^2-Val^3-Ser^4-Ile^5-His^6-Cys^7 (SEQ ID NO: 18), HUVEC cells were washed twice with PBS and then incubated for 1 hour in serum-free medium. In this Example, in order to generate a dose response curve, the peptide concentration ranged from 1×10^−13-1×10^−6 M. After 15 minutes stimulation, the medium containing peptide was removed and the cells were lysed (0.1M HCl, 0.1% Triton X-100). The clear lysate was collected, and 25 μl were used for determining the protein concentration (Pierce BCA Protein Assay Kit, Thermo Scientific, Rockford, USA) and the remaining fraction stored at −80° C. for later analysis.
cAMP concentration in cell lysates was determined using cAMP Enzyme Immunoassay Kit, Direct from Sigma-Aldrich (St. Louis, Mo., USA). Briefly, wells of 96-well plate (Goat Anti-Rabbit IgG pre-coated) were neutralized with 50 μl of Neutralizing Reagent. Next, 100 μl of acetylated cyclic AMP standard or cell lysate was added, followed by 50 μl of blue cAMP-Alkaline Phosphatase Conjugate and 50 μl of yellow EIA Rabbit Anti-cAMP antibody. The plate was then incubated on a shaker (˜500 rpm) for two hours at room temperature. […] The enzymatic reaction was stopped by adding 50 μl of Stop Solution, and the absorbance at 405 nm was measured immediately. The cAMP concentration was determined from non-linear standard curve using GraphPad Prism 5.0 software. […]

Substance	blood flow ratio vs vehicle [1]	vessel diameter vs vehicle [1]	BDNF expression at doses 100,000 times higher than 1×10^−11 ([2]; compared with 1×10^−11 M)	lowest dose stimulating significant BDNF expression [2] [nM]	mNRS: first day of significant increase in performance vs vehicle [3] [days]	forelimb placement: first day of statistically significant improvement vs vehicle [4] [days]	forelimb placement score improvement vs vehicle control [4]	forelimb placement score improvement vs vehicle control, percent [4] [%]	body swing test: first day of statistically significant improvement vs vehicle [5] [days]	stepping test: first day of statistically significant effect vs vehicle [6] [days]	BDNF expression at doses 100,000 times higher than 1×10^−11 ([7]; compared with 1×10^−11 M)	lowest dose stimulating BDNF expression [7] [nM]	dose of observed maximum cAMP (HUVEC cells)	lowest dose giving significant increase in cAMP (HUVEC cells) [pM]	blood flow compared to vehicle controls and to rats receiving TXA301 [1]	vessel diameter compared to vehicle controls and to rats receiving TXA301 [1]
TXA301: angiotensin (1-7) peptide coded TXA301 (SEQ ID NO: 20); sequence not printed in the text (DRVSIHC)	statistically significant improvement	statistically significant improvement	statistically similar levels of expression	0.01	15	22	4 points	~44	22	15	statistically similar levels of expression	0.01	–	–	–	–
Asp^1-Arg^2-Val^3-Tyr^4-Ile^5-His^6-Pro^7 (DRVYIHP) [Ang (1-7), naturally-occurring Ang-(1-7), reference compound]	–	–	–	10	–	–	–	–	–	–	–	10	–	–	–	–
Ala^1-Arg^2-Val^3-Ser^4-Ile^5-His^6-Cys^7 (ARVSIHC) [TXA302]	statistically significant improvement	statistically significant improvement	–	–	15	15	more than 7 points	~78	15	15	–	–	approximately 1×10^−9 M	10	markedly improved blood flow	increased vessel diameter
